The assay addresses ROCK2 (human) (UniProt O75116). Kind of assay: Inhibition of ROCK2 Kinase Activity.

SMILES strings stand for the structures. Where only a bound is given, the exact number is not on record here.

For orientation: IC50 means the concentration needed to halve the response being measured.

Sequence of ROCK2 (human) (O75116 whole entry, looked up): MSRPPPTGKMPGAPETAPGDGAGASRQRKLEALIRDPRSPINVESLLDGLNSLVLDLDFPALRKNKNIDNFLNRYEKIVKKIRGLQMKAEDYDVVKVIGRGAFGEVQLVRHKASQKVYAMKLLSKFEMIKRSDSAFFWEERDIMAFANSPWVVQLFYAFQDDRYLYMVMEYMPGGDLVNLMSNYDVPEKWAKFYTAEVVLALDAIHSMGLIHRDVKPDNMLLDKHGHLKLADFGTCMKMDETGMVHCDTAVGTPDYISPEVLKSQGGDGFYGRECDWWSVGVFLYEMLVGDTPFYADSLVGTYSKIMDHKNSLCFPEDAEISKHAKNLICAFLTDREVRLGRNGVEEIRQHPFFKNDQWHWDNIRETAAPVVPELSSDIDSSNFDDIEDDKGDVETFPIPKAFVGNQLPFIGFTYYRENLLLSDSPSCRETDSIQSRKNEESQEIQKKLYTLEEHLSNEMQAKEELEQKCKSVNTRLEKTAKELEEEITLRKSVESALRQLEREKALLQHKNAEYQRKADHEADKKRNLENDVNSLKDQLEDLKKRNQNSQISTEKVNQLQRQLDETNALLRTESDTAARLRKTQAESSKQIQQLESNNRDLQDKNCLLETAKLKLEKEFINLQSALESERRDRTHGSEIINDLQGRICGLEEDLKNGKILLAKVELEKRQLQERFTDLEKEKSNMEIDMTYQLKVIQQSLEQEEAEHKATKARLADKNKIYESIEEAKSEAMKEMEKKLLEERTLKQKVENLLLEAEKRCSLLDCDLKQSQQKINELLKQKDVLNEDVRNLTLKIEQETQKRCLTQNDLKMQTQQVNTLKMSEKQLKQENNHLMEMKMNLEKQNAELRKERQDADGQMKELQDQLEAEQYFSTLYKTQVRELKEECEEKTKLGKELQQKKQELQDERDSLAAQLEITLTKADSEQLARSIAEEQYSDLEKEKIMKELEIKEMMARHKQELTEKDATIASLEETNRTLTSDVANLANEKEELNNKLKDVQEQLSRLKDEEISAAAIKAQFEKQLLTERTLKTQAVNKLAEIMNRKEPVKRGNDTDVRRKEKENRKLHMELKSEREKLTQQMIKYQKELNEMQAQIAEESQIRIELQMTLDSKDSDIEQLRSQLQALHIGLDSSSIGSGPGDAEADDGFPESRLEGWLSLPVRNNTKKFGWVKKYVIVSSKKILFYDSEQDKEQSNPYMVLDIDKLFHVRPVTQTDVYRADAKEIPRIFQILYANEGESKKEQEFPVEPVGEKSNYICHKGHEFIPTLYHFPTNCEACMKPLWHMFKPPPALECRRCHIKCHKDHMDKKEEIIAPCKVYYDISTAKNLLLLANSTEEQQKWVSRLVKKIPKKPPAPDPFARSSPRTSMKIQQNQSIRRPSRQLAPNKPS

In turn, `CN(CC(N)c1ccc(C(=O)Nc2ccncc2)cc1)C(=O)C1(c2ccc(Cl)cc2)CC1` (stereo not given) registered an IC50 of 500 to 5000 nM.
To `CN(CC(N)c1ccc(C(=O)Nc2ccncc2)cc1)C(=O)C(C)(C)c1ccsc1` (stereo not given) belongs 500 to 5000 nM; to `COc1ccccc1CNC(=O)CC(N)c1ccc(C(=O)Nc2ccncc2)cc1` (stereo not given), 50 to 500 nM; to `NC(CC(=O)N(CCc1ccccc1)Cc1ccccc1)c1ccc(C(=O)Nc2ccncc2)cc1` (stereo not given), 50 to 500 nM.
To `CN(CC(N)c1ccc(C(=O)Nc2ccncc2)cc1)C(=O)C1(c2ccc(Cl)cc2)CCC1` (stereo not given) belongs 500 to 5000 nM.
`NC(CC(=O)NCCn1cccn1)c1ccc(C(=O)Nc2ccncc2)cc1` (stereo not given) had an IC50 of 50 to 500 nM.
For `CN(CC(N)c1ccc(C(=O)Nc2ccncc2)cc1)C(=O)C1CC(=O)c2ccccc21` (stereo not given) the value was 500 to 5000 nM; for `NC(CC(=O)NCCc1ccccc1)c1ccc(C(=O)Nc2ccncc2)cc1` (stereo not given), 50 to 500 nM; for `NC(CNC(=O)C1CCCC1)c1ccc(C(=O)Nc2ccncc2)cc1` (stereo not given), 500 to 5000 nM.
For `NC(c1ccc(C(=O)Nc2ccncc2)cc1)C1CCCN1C(=O)Cc1csc(-c2ccccc2)n1` (stereo not given) the value was 500 to 5000 nM; for `NC(CC(=O)NCCc1ccc(Cl)c(Cl)c1)c1ccc(C(=O)Nc2ccncc2)cc1` (stereo not given), 50 to 500 nM.
To `CCOc1ccc(CCNC(=O)CC(N)c2ccc(C(=O)Nc3ccncc3)cc2)cc1` (stereo not given) belongs 50 to 500 nM; to `NC(CC(=O)NCCc1ccc(F)cc1)c1ccc(C(=O)Nc2ccncc2)cc1` (stereo not given), 50 to 500 nM.
For `NC(CC(=O)NCc1cccc([N+](=O)[O-])c1)c1ccc(C(=O)Nc2ccncc2)cc1` (stereo not given), the IC50 is 50 to 500 nM.
In the case of `NC(c1ccc(C(=O)Nc2ccncc2)cc1)C1CCCN1C(=O)C1(c2ccc(Cl)cc2)CCCC1` (stereo not given), the concentration for half-maximal inhibition (IC50) was 500 to 5000 nM.
`NC(CNC(=O)C1(c2ccc(Cl)cc2F)CC1)c1ccc(C(=O)Nc2ccncc2)cc1` (stereo not given) showed a concentration for half-maximal inhibition (IC50) of 50 to 500 nM.
For `N[C@H](CC(=O)N[C@@H]1CCCc2ccccc21)c1ccc(C(=O)Nc2ccncc2)cc1` the value was below 50 nM; for `COc1ccc(C(NC(=O)CC(N)c2ccc(C(=O)Nc3ccncc3)cc2)c2ccc(OC)cc2)cc1` (stereo not given), 50 to 500 nM.
For `NC(CC(=O)NCCc1ccc2c(c1)Cc1ccccc1-2)c1ccc(C(=O)Nc2ccncc2)cc1` (stereo not given) the value was 50 to 500 nM; for `NC(CNC(=O)Nc1ccc(F)cc1)c1ccc(C(=O)Nc2ccncc2)cc1` (stereo not given), 50 to 500 nM; for `COc1ccc(CC(=O)NCC(N)c2ccc(C(=O)Nc3ccncc3)cc2)cc1` (stereo not given), 50 to 500 nM.
For `NC(CNC(=O)CCc1ccccc1)c1ccc(C(=O)Nc2ccncc2)cc1` (stereo not given) the value was 50 to 500 nM; for `CN(CC(N)c1ccc(C(=O)Nc2ccncc2)cc1)C(=O)Cc1csc(-c2ccccc2)n1` (stereo not given), 500 to 5000 nM; for `NC(CNC(=O)c1ccc(Oc2ccccc2)cc1)c1ccc(C(=O)Nc2ccncc2)cc1` (stereo not given), 500 to 5000 nM.
As to `N[C@H](CC(=O)NC1COc2ccccc21)c1ccc(C(=O)Nc2ccncc2)cc1` (stereo not given in full), the IC50 is below 50 nM.
To `CC[C@H](NC(=O)CC(N)c1ccc(C(=O)Nc2ccncc2)cc1)c1ccc(C)cc1` (stereo not given in full) belongs 50 to 500 nM.
To `NC(c1ccc(C(=O)Nc2ccncc2)cc1)C1CCCN1C(=O)C1Cc2ccccc21` (stereo not given) belongs 50 to 500 nM; to `CN(CCO)C(=O)CC(N)c1ccc(C(=O)Nc2ccncc2)cc1` (stereo not given), 50 to 500 nM.
For `Cc1ccccc1NC(=O)NCC(N)c1ccc(C(=O)Nc2ccncc2)cc1` (stereo not given) the value was 50 to 500 nM; for `COc1cccc(OC)c1CNC(=O)CC(N)c1ccc(C(=O)Nc2ccncc2)cc1` (stereo not given), 50 to 500 nM.
`CCOc1ccccc1CCNC(=O)CC(N)c1ccc(C(=O)Nc2ccncc2)cc1` (stereo not given) showed an IC50 of 50 to 500 nM.
For `NC(CC(=O)NCCc1ccc(C(F)(F)F)cc1)c1ccc(C(=O)Nc2ccncc2)cc1` (stereo not given) the value was 50 to 500 nM.
For `COc1ccc(CCNC(=O)CC(N)c2ccc(C(=O)Nc3ccncc3)cc2)cc1` (stereo not given), the IC50 was 50 to 500 nM.
To `CN(CC(N)c1ccc(C(=O)Nc2ccncc2)cc1)C(=O)C(C)(C)c1cccs1` (stereo not given) belongs 500 to 5000 nM; to `NC(CC(=O)NCc1ccccc1)c1ccc(C(=O)Nc2ccncc2)cc1` (stereo not given), 50 to 500 nM.

The values are drawn from the Kinase Knowledgebase extract (Sharma et al. 2016).
